Reference: PubChem BioAssay (NCI)
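Cultured in 96-well plates, cells were exposed to test compound for 48 hours across five concentrations. Here, GI50 denotes the concentration required for 50% inhibition of growth. TGI: concentration producing complete growth inhibition.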

Key:
Experiment in all cases: NCI tumour cell line growth inhibition, 48 h
SK-MEL-28 melanoma = tested on: SK-MEL-28 melanoma
HCT-116 colon = tested on: HCT-116 colon
NCI-H460 lung = tested on: NCI-H460 lung
SK-OV-3 ovarian = tested on: SK-OV-3 ovarian
MOLT-4 leukemia = tested on: MOLT-4 leukemia
HCT-15 colon = tested on: HCT-15 colon
A549 NSCLC = tested on: A549 NSCLC
K-562 leukemia = tested on: K-562 leukemia
CCRF-CEM leukemia = tested on: CCRF-CEM leukemia
TK-10 renal = tested on: TK-10 renal

| SMILES | TGI (SK-MEL-28 melanoma) [µM] | TGI (HCT-116 colon) [µM] | TGI (NCI-H460 lung) [µM] | TGI (SK-OV-3 ovarian) [µM] | TGI (MOLT-4 leukemia) [µM] | TGI (HCT-15 colon) [µM] | TGI (A549 NSCLC) [µM] | TGI (K-562 leukemia) [µM] | TGI (CCRF-CEM leukemia) [µM] | TGI (TK-10 renal) [µM] | GI50 (SK-MEL-28 melanoma) [µM] | GI50 (HCT-116 colon) [µM] | GI50 (NCI-H460 lung) [µM] | GI50 (SK-OV-3 ovarian) [µM] | GI50 (MOLT-4 leukemia) [µM] | GI50 (HCT-15 colon) [µM] | GI50 (A549 NSCLC) [µM] | GI50 (K-562 leukemia) [µM] | GI50 (CCRF-CEM leukemia) [µM] | GI50 (TK-10 renal) [µM] |
| --- | --- | --- | --- | --- | --- | --- | --- | --- | --- | --- | --- | --- | --- | --- | --- | --- | --- | --- | --- | --- |
| COc1ccc(-c2nc3ncccn3c2-c2ccc(SC)cc2)cc1 | > 100 | 5.15 | 7.87 | 2.85 | > 100 | > 100 | 9.88 | > 100 | > 100 |  |  |  |  |  |  |  |  |  |  |  |
| COc1ccc2c(C(=O)c3cn(CCN4CCOCC4)c4ccccc34)cccc2c1 | > 100 | > 100 | > 100 | > 100 | 64.4 | > 100 | > 100 | > 100 | 85.5 | > 100 |  |  |  |  |  |  |  |  |  |  |
| O=C(O)CCSC(CC1(c2ccc(Cl)cc2)NC(=O)CCS1)c1ccccc1 (stereo not given) | 37.7 | 17.4 | 64.7 | 38 | > 100 | 32.1 | > 63.1 | > 100 | 24.8 | 36 |  |  |  |  |  |  |  |  |  |  |
| NCCc1cc(O)c(O)cc1O | 97.5 | 53.3 | 80.4 | > 84.1 | 70.7 | 44.5 | > 100 | > 80.5 | 23.6 | > 100 |  |  |  |  |  |  |  |  |  |  |
| O=P1(c2ccccc2)Nc2ccccc2SSc2ccccc2N1 | 34.3 | 31.4 | 33.8 | 44.4 | 49.9 | 35.8 | 46.1 | 51.4 | 62.8 |  |  |  |  |  |  |  |  |  |  |  |
| CSc1ccsc1-c1sc(-c2cc(SC)c(-c3sc(-c4cc(SC)c(-c5sccc5SC)s4)cc3SC)s2)cc1SC | > 100 | > 100 | > 100 | > 100 | > 100 | > 100 | > 100 | > 100 | 27 | > 100 |  |  |  |  |  |  |  |  |  |  |
| CN(C)CCCn1cnc2cc(Cl)c(Cl)cc21 | 41.8 | > 100 | > 100 | > 100 |  | > 100 | > 100 | > 100 | > 100 | > 100 |  |  |  |  |  |  |  |  |  |  |
| CCCOC(=O)CNC(=O)OC(C)(C)C | > 100 | > 100 | > 100 | > 100 |  | > 100 | > 100 | > 100 | > 100 | > 100 |  |  |  |  |  |  |  |  |  |  |
| COc1ccc(/C(Cl)=C(\C=O)c2ccc(OC)cc2)cc1 |  | > 100 | > 100 | > 100 | > 100 | > 100 | > 100 | > 100 | > 100 | > 100 |  |  |  |  |  |  |  |  |  |  |
| N=C1C(=N)c2ccccc2-c2ccccc21.N=C1C(=N)c2ccccc2-c2ccccc21.N=C1C(=N)c2ccccc2-c2ccccc21.[Cl-].[Ru+2] | 3.79 | 3.2 | 6.29 | 6.91 | 5.46 |  | > 27.9 | 4.68 |  |  |  |  |  |  |  |  |  |  |  |  |
| COC(C)(C)OCCN1CCN(CCN2C3=C(C=C(C(C)=O)C3)Sc3ccccc32)CC1 | 32.9 | 33.6 | 35.5 | 79.8 | 36.7 | 40.9 | 96.7 | 32.2 | 32.4 | 34.6 |  |  |  |  |  |  |  |  |  |  |
| C=CCN(C(=O)CNC(=O)C(F)(F)F)c1cc(OCc2ccccc2)c2c(c1)c(C)cn2S(=O)(=O)c1ccccc1 | > 100 | > 100 | > 100 | > 100 | > 100 | > 100 | > 100 | > 100 | > 100 | > 100 |  |  |  |  |  |  |  |  |  |  |
| CC(=O)NNc1nc(-c2ccc([N+](=O)[O-])cc2)c(C#N)c(=O)n1C | > 100 | 94.2 | > 100 | > 100 | > 100 | > 100 | > 100 | 89.5 | > 100 | 72.8 |  |  |  |  |  |  |  |  |  |  |
| Cc1cc(/N=C/c2ccc(F)cc2)n(-c2ccccc2)n1 | > 100 | > 100 | > 100 | > 100 | > 100 | > 100 | > 100 | > 100 | > 100 | > 100 |  |  |  |  |  |  |  |  |  |  |
| NCCCn1c2c(c3ccc([N+](=O)[O-])cc3c1=O)C(=O)c1ccccc1-2 |  |  | > 50 | 2.28 | > 50 | 0.81 |  |  | > 50 | 1.83 | 0.497 | 0.0205 | 0.00887 | 0.631 | 0.114 | 0.029 | 0.0233 | 0.0335 | 0.135 | 0.212 |
| COc1cc(C2CC(c3cccc(Nc4ccncc4)c3)=NN2c2ccc(Cl)cc2)cc(OC)c1OC (stereo not given) | 3.12 |  | 3.13 | 3.43 |  | 3.28 |  | 4.71 | 6.71 |  | 1.68 |  | 1.69 | 1.77 |  | 1.7 |  | 1.81 | 2.39 |  |

| SMILES | TGI (SK-MEL-28 melanoma) [µM] | TGI (HCT-116 colon) [µM] | TGI (NCI-H460 lung) [µM] | TGI (SK-OV-3 ovarian) [µM] | TGI (MOLT-4 leukemia) [µM] | TGI (HCT-15 colon) [µM] | TGI (A549 NSCLC) [µM] | TGI (K-562 leukemia) [µM] | TGI (CCRF-CEM leukemia) [µM] | TGI (TK-10 renal) [µM] | GI50 (SK-MEL-28 melanoma) [µM] | GI50 (HCT-116 colon) [µM] | GI50 (NCI-H460 lung) [µM] | GI50 (SK-OV-3 ovarian) [µM] | GI50 (MOLT-4 leukemia) [µM] | GI50 (HCT-15 colon) [µM] | GI50 (A549 NSCLC) [µM] | GI50 (K-562 leukemia) [µM] | GI50 (CCRF-CEM leukemia) [µM] | GI50 (TK-10 renal) [µM] |
| --- | --- | --- | --- | --- | --- | --- | --- | --- | --- | --- | --- | --- | --- | --- | --- | --- | --- | --- | --- | --- |
| O=C(Nc1ccc([N+](=O)[O-])cc1[N+](=O)[O-])C(=O)C(C(=O)c1ccc2ccccc2c1)C1OC(=O)c2ccccc21 (stereo not given) | 48 | 32 | 28.9 | 42.1 | 62.2 | 30.7 | 61.7 | 38.8 | 32.4 | 61.7 |  |  |  |  |  |  |  |  |  |  |
| CN(C)CCNC(=O)c1cccc2ccc(-c3ccc(F)cc3)nc12 | 20.1 | 13.3 | 10.5 | 24.8 | 7.03 | 16.1 | 17.9 | 12 | 15.8 |  |  |  |  |  |  |  |  |  |  |  |
| Nc1n[nH]c(=O)c2c1c(I)cn2C1OC(CO)C(O)C1O (stereo not given) | 3.47 | > 100 | 14.1 | > 100 | 2.29 | 3.05 | > 100 | > 100 | 4.12 | > 100 |  |  |  |  |  |  |  |  |  |  |
| Oc1cn(-c2ccc(Cl)cc2)nc1-c1n[nH]c(=S)n1-c1ccccc1 | > 100 | 18.7 | 59.4 | 51.3 | > 100 | 14.9 | 35.6 | > 100 |  | 58.7 |  |  |  |  |  |  |  |  |  |  |
| CC(C)(C)[Si](C)(C)Oc1ccc(C2CNC(=O)C23CCC(=O)N3Cc2ccccc2)cc1 (stereo not given) |  | > 100 | 20.8 | 29 | > 100 | 30 | 33.2 | > 100 | > 100 | 51.8 |  |  |  |  |  |  |  |  |  |  |
| Cc1cc2c(cc1C(=O)c1ccc(N)cc1)OCO2 |  | > 100 | > 100 | 85.6 | > 100 | > 100 | > 100 | > 100 | > 100 | > 100 |  |  |  |  |  |  |  |  |  |  |
| COc1cc(/C=C/C(=O)Oc2ccc(NC(C)=O)cc2)ccc1C(=O)O/C=C/c1ccccc1 | > 100 | > 100 | > 100 | > 100 | > 100 | > 100 | > 100 | > 31.6 | > 100 |  |  |  |  |  |  |  |  |  |  |  |
| CC(=O)O[C@H]1CC[C@@]2(C)C(=CC[C@H]3[C@@H]4C/C(=C\c5ccc(N(C)C)cc5)[C@H](OC(C)=O)[C@@]4(C)CC[C@@H]32)C1 | 32.8 | 25.3 | 18.2 | > 100 | > 100 | 31.9 | 31.7 | > 100 |  | 35.6 |  |  |  |  |  |  |  |  |  |  |
| COc1ccc(C2=C3SC=c4ccccc4=C3ON=C2c2ccccc2)cc1 | > 100 | > 100 | > 100 |  | > 100 | > 100 | > 100 | > 100 | > 100 | > 100 |  |  |  |  |  |  |  |  |  |  |
| CCC(=O)O[C@H]1CC[C@H]2[C@@H]3CCC4=C/C(=N/OC(=O)c5cccc6cc7ccccc7nc56)CC[C@]4(C)[C@H]3CC[C@]12C | > 100 | > 100 | > 100 | > 100 | > 100 | > 100 | > 100 | > 100 | > 100 |  |  |  |  |  |  |  |  |  |  |  |
| O=C1NI(C#Cc2ccccc2)c2ccccc21 | > 100 | > 100 | > 100 | 95.1 | > 100 | > 100 | > 100 | > 100 | 88.9 | > 100 |  |  |  |  |  |  |  |  |  |  |
| Cc1c2cccc-2c(OCCO)cc2c3ccccc3n(C)c12 | 21.4 | 12.8 | 18.3 | 7.34 | 34.6 | 45 | 15.5 | 21.4 | 7.53 | 23.4 |  |  |  |  |  |  |  |  |  |  |
| C[C@H]1C(=O)O[C@@H]2CCN3CC=C(COC(=O)[C@](C)(O)[C@@]1(C)O)[C@H]23 | > 100 | > 100 |  | > 100 | > 100 | > 100 | > 100 | > 100 | > 100 | > 100 |  |  |  |  |  |  |  |  |  |  |
| Nc1ccccc1N=Cc1cc2cc([N+](=O)[O-])ccc2s1 | 57.8 | > 100 | 47.5 | 29.7 | 13.6 | > 100 | 30.9 | 35.1 | 22.8 | 29.6 |  |  |  |  |  |  |  |  |  |  |
| CCc1nc(N)nc(N)c1-c1ccc([N+](C)(C)C)cc1 | > 100 | > 100 | > 100 | > 100 | > 100 | > 100 | > 100 | > 100 | > 100 | > 100 |  |  |  |  |  |  |  |  |  |  |
| FC(F)(F)c1ccc2c(c1)nc(-c1ccc(Cl)cc1)n2CC1CCCN2CCCCC12 (stereo not given) | 30.8 | 27.4 | 31.4 | 21.3 | 13 | 28.8 | 29.5 |  | 36 | 28.5 |  |  |  |  |  |  |  |  |  |  |
